This note sets out measurements from patent publication US8741871B2, “Trehalose compound, method for producing same, and pharmaceutical product containing the compound” (priority 2008, dated 2014).

For assay [1], the system named is Welch bacillus (C. perfringens Type-A NCTC8237). The assay is classed as in vivo. As to conditions: pre-administration 100 μg/mouse i.p., twenty-four hours later 5.0×10^7 CFU/mL Welch bacillus i.p.; FIG. 16.
The test system of assay [2] is mouse intraperitoneal infiltrating cells. Briefly: Cell infiltration into mouse abdominal cavity (cell count, Giemsa staining, flow cytometry). As to conditions: 100 μg/mouse i.p. Background: A flow cytometer gives signals particle by particle.
Setting [3] is: twenty-four hours after administration, flow cytometry.

As to `CCCCCCCCCC(CCCCCCCCC)CC(=O)OCC1O[C@H](O[C@H]2OC(COC(=O)CC(CCCCCCCCC)CCCCCCCCC)[C@@H](O)C(O)C2O)C(O)C(O)[C@@H]1O` (stereo partly drawn) [Example 9, 6,6′-bis-O-(3-nonyldodecanoyl)-α,α′-trehalose], in assay [1], the “lethality of Welch bacillus-infected mice” value is “significantly suppressed”. Besides, the “infiltrating cells in the abdominal cavity of mice over time” value in assay [2] (2 hours or 24 hours after administration, FIG. 12) is reported as “an increase in infiltrating cells was observed time-dependently”. Further, in assay [2] (setting [3]), the “abundance ratio of the CD11b-positive cells and CD4-positive cells compared with vehicle” value was “hardly changed”; the “total number of CD11b-positive cells, CD4-positive cells and CD8-positive cells compared with vehicle” value is reported as 15 to 20 times. For the same compound, the “abundance ratio of the CD8-positive cells compared with vehicle” value in assay [2] (twenty-four hours after administration, flow cytometry, FIGS. 13 to 15) was in the range of 2 to 3 times. For the same compound, the “number of infiltrating cells in mouse abdominal cavity compared with vehicle” value in assay [2] (twenty-four hours later, FIG. 12) was 15 to 20 times.
